Some test systems named below: K-562 leukemia; MALME-3M melanoma; SF-539 CNS; SF-295 CNS; SF-268 CNS; KM12 colon; A549 NSCLC; NCI/ADR-RES ovarian; OVCAR-3 ovarian; SK-MEL-28 melanoma.
Holding throughout (assay): inhibition of tumour cell growth, NCI panel, 48 h

Each structure is given as a SMILES string.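 Grown in 96-well plates, cells were treated for 48 hours with each compound at five concentrations. Insufficient inhibition: endpoint recorded as highest concentration tested. TGI: concentration producing complete growth inhibition.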

For the compound `COc1cc(/C=C/C(=O)c2c(=O)o[nH][n+]2-c2ccccc2)ccc1[O-]`, the TGI with K-562 leukemia is 8.61 µM; in the experiment with MALME-3M melanoma it was 12 µM; with SF-539 CNS, 5.92 µM; in the experiment on SF-295 CNS, 31.6 µM; in the experiment on SF-268 CNS, 15.2 µM; in the experiment with KM12 colon, 8.77 µM. In addition, the TGI in the experiment on A549 NSCLC amounted to 14.8 µM; with NCI/ADR-RES ovarian, 7.22 µM; in the experiment with OVCAR-3 ovarian, 4.82 µM; with SK-MEL-28 melanoma, 8.85 µM.

Turning to `COC(=O)[C@H]1[C@@H](C(C)C)O[C@@H](C(C)C)O[C@H]1C(F)(F)F`, the TGI in the experiment with K-562 leukemia, in the experiment with MALME-3M melanoma, in the experiment with SF-539 CNS, with SF-295 CNS, in the experiment with SF-268 CNS and in the experiment on KM12 colon was over 100 µM each time. For the same compound, the TGI in the experiment with A549 NSCLC, with NCI/ADR-RES ovarian, with OVCAR-3 ovarian and in the experiment on SK-MEL-28 melanoma was over 100 µM throughout.

Consider `O=C1CCC2(CCO1)OCCO2`, for which the TGI in the experiment on K-562 leukemia, with MALME-3M melanoma, in the experiment on SF-539 CNS, with SF-295 CNS, with SF-268 CNS and in the experiment with KM12 colon was over 100 µM throughout. Besides, the TGI with A549 NSCLC, in the experiment on NCI/ADR-RES ovarian, with OVCAR-3 ovarian and in the experiment with SK-MEL-28 melanoma was over 100 µM in each case.

Turning to `C[C@@H](O)C(=O)N1[C@@H]2CC3CC[C@]2(CS1(=O)=O)C3(C)C`, the TGI in the experiment with K-562 leukemia, with SF-539 CNS, in the experiment with SF-295 CNS, in the experiment with KM12 colon, with A549 NSCLC and in the experiment with NCI/ADR-RES ovarian was over 100 µM in each case. For the same compound, the TGI in the experiment on OVCAR-3 ovarian and in the experiment on SK-MEL-28 melanoma was over 100 µM in each case.

`OCC1OC(n2cnc3cncnc32)C(O)C1O` (stereo not given): the TGI came to 9.77 µM in the experiment on K-562 leukemia; 4.73 µM in the experiment with MALME-3M melanoma; 2.94 µM with SF-539 CNS; 8.32 µM in the experiment on SF-295 CNS; 2.98 µM with SF-268 CNS; 6 µM in the experiment on KM12 colon. The TGI in the experiment with A549 NSCLC was 5.8 µM; in the experiment on NCI/ADR-RES ovarian, 2.25 µM; with OVCAR-3 ovarian it was 4.94 µM; in the experiment with SK-MEL-28 melanoma it was 5.23 µM.

Consider `Cc1ccc(C2=NOC(=O)[C@@H]3CCCC[C@@H]23)cc1`, for which the TGI in the experiment with K-562 leukemia, with MALME-3M melanoma, in the experiment on SF-539 CNS, in the experiment on SF-295 CNS, in the experiment with SF-268 CNS and in the experiment with KM12 colon was over 100 µM in each case. In addition, the TGI in the experiment on NCI/ADR-RES ovarian, with OVCAR-3 ovarian and in the experiment on SK-MEL-28 melanoma was over 100 µM in each case.

`CCOP(=O)(OCC)C(Nc1cccc(F)c1)c1ccccc1` (stereo not given): the TGI in the experiment on K-562 leukemia, in the experiment with MALME-3M melanoma, in the experiment with SF-539 CNS, with SF-295 CNS, with SF-268 CNS and in the experiment on KM12 colon was over 100 µM throughout. Moreover, the TGI in the experiment with A549 NSCLC, in the experiment on NCI/ADR-RES ovarian, in the experiment with OVCAR-3 ovarian and in the experiment with SK-MEL-28 melanoma was over 100 µM throughout.

On to `Cc1ccc(C(=O)O)c(CC2Cc3c(C)cccc3C2=O)c1` (stereo not given), for which the TGI in the experiment with K-562 leukemia, in the experiment with MALME-3M melanoma, in the experiment on SF-539 CNS, in the experiment on SF-295 CNS, in the experiment with SF-268 CNS and in the experiment with KM12 colon was over 100 µM in each case. The TGI in the experiment with A549 NSCLC, with NCI/ADR-RES ovarian, in the experiment on OVCAR-3 ovarian and in the experiment on SK-MEL-28 melanoma was over 100 µM throughout.

Consider `O=[N+]([O-])c1ccc2nc(-c3ccccn3)c(-c3ccccn3)nc2c1`, for which the TGI with MALME-3M melanoma, in the experiment on SF-539 CNS, with SF-295 CNS, with SF-268 CNS, in the experiment on KM12 colon and in the experiment on A549 NSCLC was over 100 µM in each case. The TGI with NCI/ADR-RES ovarian, in the experiment on OVCAR-3 ovarian and in the experiment with SK-MEL-28 melanoma was over 100 µM in each case.

With `CC1(C)OCC(C(O)C2OC(C)(C)OC2C=O)O1` (stereo not given), the TGI in the experiment with K-562 leukemia, with MALME-3M melanoma, with SF-295 CNS, with SF-268 CNS, in the experiment with KM12 colon and in the experiment with A549 NSCLC was over 100 µM each time. Further, the TGI in the experiment with NCI/ADR-RES ovarian, in the experiment with OVCAR-3 ovarian and with SK-MEL-28 melanoma was over 100 µM each time.

For `COc1ccc2c(c1)C(N)=C(c1ccccc1)C2=O`, the TGI in the experiment with MALME-3M melanoma, with SF-539 CNS, in the experiment on SF-295 CNS, with SF-268 CNS, in the experiment on KM12 colon and with A549 NSCLC was over 100 µM throughout. The TGI with NCI/ADR-RES ovarian, in the experiment on OVCAR-3 ovarian and in the experiment with SK-MEL-28 melanoma was over 100 µM each time.

For `O=[N+]([O-])c1ccc(S[C@@H]2[C@H]3c4c(-c5ccccc5)[nH]c(-c5ccccc5)c4[C@@H]2C[C@H]3Cl)cc1`, the TGI with MALME-3M melanoma is 78.9 µM; in the experiment with SF-539 CNS, over 100 µM; in the experiment on SF-295 CNS, over 100 µM; in the experiment on SF-268 CNS, 25.7 µM; in the experiment with KM12 colon it was 12.3 µM; in the experiment with A549 NSCLC it was over 100 µM. Moreover, the results for the TGI in the experiment with NCI/ADR-RES ovarian, in the experiment with OVCAR-3 ovarian and with SK-MEL-28 melanoma were 26.4 µM, 35.8 µM and over 100 µM, respectively.

Turning to `N#CC(C#N)=C1C(C#N)=C(N)NC12OCCO2`, the TGI with K-562 leukemia, in the experiment on MALME-3M melanoma, in the experiment with SF-295 CNS, in the experiment with SF-268 CNS, in the experiment with KM12 colon and in the experiment with A549 NSCLC was over 100 µM throughout. Besides, the TGI with NCI/ADR-RES ovarian and in the experiment on SK-MEL-28 melanoma was over 100 µM in each case.

In the case of `Cc1cc(C)c(P2C(=C(O[Si](C(C)C)(C(C)C)C(C)C)C(C)(C)C)C2(c2ccccc2)c2ccccc2)c(C)c1` (stereo not given), the TGI in the experiment on K-562 leukemia, in the experiment with SF-539 CNS, with SF-295 CNS, with SF-268 CNS, in the experiment with KM12 colon and with A549 NSCLC was over 100 µM each time. The TGI in the experiment with NCI/ADR-RES ovarian, in the experiment on OVCAR-3 ovarian and in the experiment with SK-MEL-28 melanoma was over 100 µM each time.

The values are drawn from PubChem BioAssay (NCI).
